According to US9169217B2, “Arylalkyl esters of 4-amino-6-(substituted phenyl)-picolinates and 6-amino-2-(substituted phenyl)-pyrimidinecarboxylates and their use as selective herbicides for crops” (Dow AgroSciences LLC, priority 2011, dated 2015):

Assays:
[1] = system: Brachiaria platyphylla (GRISEB.) NASH (broadleaf signalgrass); experiment: Postemergence foliar-applied herbicidal activity in direct seeded rice (Example 16); type: in vivo; conditions: BRAPP, probit analysis; for GR50: 50% growth reduction; for GR80: 80% growth reduction; for GR90: 90% growth reduction
Procedure, shortened: (§1)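 Greenhouse plants at 2nd–3rd true leaf stage (10–17 d, ~29/26 °C, 14-h photoperiod) sprayed postemergence with ester forms in acetone–DMSO plus 1.25% crop oil concentrate at 187 L/ha. Visual injury scored 0–100% versus untreated plants after 3 weeks; GR50/GR80 derived by probit analysis.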

[2] = system: Polygonum pensylvanicum L. (Pennsylvania smartweed); experiment: as above; type: in vivo; conditions: POLPY, probit analysis; for GR50: 50% growth reduction; for GR80: 80% growth reduction; for GR90: 90% growth reduction
Procedure, shortened: as §1

[3] = system: Cirsium arvense (Thistle, Canada); experiment: Postemergence herbicidal activity in cereal crops (Example 14); type: in vivo; conditions: wheat cropping systems, postemergence spray, 21 DAA
Procedure: (§2) Seeds of the desired test plant species were planted in Sun Gro Metro-Mix® 360 planting mixture, which typically has a pH of 6.0 to 6.8 and an organic matter content of about 30 percent, in plastic pots with a surface area of 84.6 cm^2. When required to ensure good germination and healthy plants, a fungicide treatment and/or other chemical or physical treatment was applied. The plants were grown for 7-36 d in a greenhouse with an approximate 14 h photoperiod which was maintained at about 18° C. during the day and 17° C. during the night. Nutrients and water were added on a regular basis and supplemental lighting was provided with overhead metal halide 1000-Watt lamps as necessary. The plants were employed for testing when they reached the second or third true leaf stage.
(§3) Treatments consisted of esters of compounds 33, 34, 39, 40 and 42 and B, F, G and H. Compound B is methyl 4-amino-3-chloro-6-(4-cyclopropylphenyl)-5-fluoropicolinate; compound F is methyl 6-amino-2-(4-chloro-2-fluoro-3-methoxyphenyl)-5-methoxypyrimidine-4-carboxylate; compound G is methyl 4-amino-3-chloro-6-(4-chloro-2-fluoro-3-methoxyphenyl)picolinate; and compound H is methyl 4-amino-3-chloro-6-(4-chloro-2-fluoro-3-(1-fluoroethyl)phenyl)-5-fluoropicolinate. A weighed amount, determined by the highest rate to be tested, of each test compound was placed in a 25 mL glass vial and was dissolved in 8 mL of a 97:3 v/v mixture of acetone and DMSO to obtain concentrated stock solutions. […] The concentrated stock solutions obtained were diluted with 16 mL of an aqueous mixture containing acetone, water, isopropyl alcohol, DMSO, Agri-dex crop oil concentrate, and Triton® X-77 surfactant in a 64.7:26.0:6.7:2.0:0.7:0.01 v/v ratio to obtain spray solutions containing the highest application rates. Additional application rates were obtained by serial dilution of 12 mL of the high rate solution into a solution containing 4 mL of a 97:3 v/v mixture of acetone and DMSO and 8 mL of an aqueous mixture containing acetone, water, isopropyl alcohol, DMSO, Agri-dex crop oil concentrate, and Triton® X-77 surfactant in a 48.5:39.0:10.0:1.5:1.0:0.02 v/v ratio to obtain ½×, ¼×, ⅛× and 1/16× rates of the high rate. Compound requirements are based upon a 12 mL application volume at a rate of 187 L/ha. Formulated compounds were applied to the plant material with an overhead Mandel track sprayer equipped with 8002E nozzles calibrated to deliver 187 L/ha over an application area of 0.503 m^2 at a spray height of 18 inches (43 cm) above average plant canopy height. Control plants were sprayed in the same manner with the blank.
(§4) The treated plants and control plants were placed in a greenhouse as described above and watered by sub-irrigation to prevent wash-off of the test compounds. After 20-22 d, the condition of the test plants as compared with that of the untreated plants was determined visually and scored on a scale of 0 to 100 percent where 0 corresponds to no injury and 100 corresponds to complete kill.

[4] = system: Kochia scoparia (Kochia); experiment: as above; type: in vivo; conditions: wheat cropping systems, postemergence spray, 35 g ae/ha, 21 DAA
Procedure: as §2, §3, §4

[5] = system: Salsola kali (Thistle, Russian); experiment: as above; type: in vivo; conditions: wheat cropping systems, postemergence spray, 35 g ae/ha, 21 DAA
Procedure: as §2, §3, §4

melting point [°C]	SMILES	GR50 [1] [g ae/ha]	GR80 [1] [g ae/ha]	GR90 [1] [g ae/ha]	GR50 [2] [g ae/ha]	GR80 [2] [g ae/ha]	GR90 [2] [g ae/ha]	Visual Injury (%) CIRAR ([3]; 8.75 g ae/ha) [%]	Visual Injury (%) CIRAR ([3]; 17.5 g ae/ha) [%]	Visual Injury (%) KCHSC [4] [%]	Visual Injury (%) SASKR [5] [%]
	COc1c(Cl)ccc(-c2nc(C(=O)OCc3ccccc3)c(Cl)c(N)c2F)c1F [Compound 1, benzyl 4-amino-3-chloro-6-(4-chloro-2-fluoro-3-methoxyphenyl)-5-fluoropicolinate]	<4.38	9.9	26.0	<8.75	19.7	46.7				
90 to 91.5	COc1c(Cl)ccc(-c2cc(N)c(Cl)c(C(=O)OCc3ccccc3)n2)c1F [Compound 39]							90	95	95	90
116 to 119	COC(=O)c1nc(-c2ccc(C3CC3)cc2)c(F)c(N)c1Cl [Compound B, methyl 4-amino-3-chloro-6-(4-cyclopropylphenyl)-5-fluoropicolinate]										
	COC(=O)c1nc(-c2ccc(Cl)c(OC)c2F)cc(N)c1Cl [Compound G, methyl 4-amino-3-chloro-6-(4-chloro-2-fluoro-3-methoxyphenyl)picolinate, reference compound]							70	80	87	80
	COC(=O)c1nc(-c2ccc(Cl)c(OC)c2F)c(F)c(N)c1Cl [E, methyl 4-amino-3-chloro-6-(4-chloro-2-fluoro-3-methoxyphenyl)-5-fluoropicolinate, reference compound]	<4.38	22.7	84.3	30.7	>70	>70				
